Legend:
[1] = Muscle strength (myometry) and timed function tests, DMD Phase 2; format: in vivo, human; settings: within the 28 days of treatment
Experimental: Upper and lower extremity myometry are performed using a hand-held myometer following standardized procedures (Beenakker, 2001, Neuromuscul. Disord. 11(5):441-6; Hyde, 2001, Neuromuscul. Disord 11(2):165-70). It is recommended (depending on the subject's baseline functional status) that evaluated muscle groups include hip abductors, knee extensors, elbow flexors and extensors, and hand grip. Bilateral assessments can be done, and three measurements can be recorded from each muscle group on each side. These parameters are monitored prior to treatment, on the second to last day of treatment, and during a follow-up period after treatment. During the pre-treatment and treatment periods, the myometry procedures are performed prior to the muscle biopsy.
Timed function tests include time taken to stand from a supine position, time taken to walk 10 meters, and time taken to climb 4 standard-sized stairs (Mendell, 1989, N. Engl. J. Med. 320(24):1592-7; Griggs, 1991, Arch. Neurol. 48(4):383-8). These parameters are monitored prior to treatment, on the second to last day of treatment, and during a follow-up period after treatment. During the pre-treatment and treatment periods, the timed function tests are performed prior to the muscle biopsy. […]

[2] = Pharmacokinetics, DMD Phase 2 interim analysis; format: in vivo, human; settings: for Cmin: DMD patients, 4, 4, 8 mg/kg
Experimental: 3-[5-(2-Fluoro-phenyl)-[1,2,4]oxadiazol-3-yl]-benzoic acid is provided in a formulation described herein. Treatment is administered over 28 days for each treatment cohort. An initial cohort of patients are treated daily for 28 days with 3-[5-(2-fluoro-phenyl)-[1,2,4]oxadiazol-3-yl]-benzoic acid at a given dose level (e.g., 4-, 4-, and 8-mg/kg) TID. If the initial patients tolerate the drug, then a second cohort of patients receives 3-[5-(2-fluoro-phenyl)-[1,2,4]oxadiazol-3-yl]-benzoic acid at a higher dose level (e.g., 10-, 10-, and 20-mg/kg) TID. Thus, each patient receives a total of 84 doses of 3-[5-(2-fluoro-phenyl)-[1,2,4]oxadiazol-3-yl]-benzoic acid. After the end of 28 days of treatment, each patient is followed for an additional 28 days without treatment.
At each dose level, it is recommended that 3-[5-(2-fluoro-phenyl)-[1,2,4]oxadiazol-3-yl]-benzoic acid be taken TID at 6-, 6-, and 12-hour (±˜30 minutes) intervals. Ideally each dose is taken within ˜30 minutes after a meal (e.g., ˜7:00 AM after breakfast, ˜1:00 PM after lunch, and ˜7:00 PM after dinner). While it is realized that variations in dosing schedule may occur in the outpatient setting, it is recommended that the prescribed regimen (including dosing intervals and the relationship of dosing to meals) be followed closely on the days of PK sample collection. Clinical endpoints are evaluated using the procedures set forth above.
Six patients were administered 3-[5-(2-fluoro-phenyl)-[1,2,4]oxadiazol-3-yl]-benzoic acid TID in a regimen consisting of 4 mg/kg with breakfast, 4 mg/kg with lunch, and 8 mg/kg with supper, for a total daily dose of 16 mg/kg. All patients were ambulatory, but had characteristic signs and symptoms of DMD, including some degree of muscle dysfunction and elevated serum CK concentrations. […] These adverse events included diarrhea in 1 patient; abdominal pain in 1 patient; and flatulence in 2 patients. […] Treatment compliance was good, with patients taking >95% of the intended total drug treatment for 28 days at the lower dose level. […]

Compound: O=C(O)c1cccc(-c2noc(-c3ccccc3F)n2)c1 [3-[5-(2-fluoro-phenyl)-[1,2,4]oxadiazol-3-yl]-benzoic acid]
- Changes in muscle strength and timed functions [1]: small and not significant
- Drug accumulation / induction of metabolism ([2]; 27-day treatment interval between sampling periods): neither evidence of drug accumulation nor evidence of decreased drug levels due to the induction of metabolism
- Cmin ([2]; Day 1, N = 6, mean): 500 ng/mL
- Cmin ([2]; Day 27, N = 6, mean): 600 ng/mL

— patent US9289398B2, “Methods for the production of functional protein from DNA having a nonsense mutation and the treatment of disorders associated therewith” (PTC Therapeutics, Inc., priority 2006, dated 2016)
